In data set [1] the target is T1, CDK9 (Homo sapiens, UniProt P50750). Kind of data set: TMT-based global proteomics in MOLT4 cells. The following applies: 0.1 μM 955 for 1 h and 6 h, 1 μM SNS-032 for 6 h. Further details: endogenous in cells; host or cells: MOLT4. The data set is classed as cell-based. An excerpt: Sample Preparation and LC-MS/MS analysis. Total protein from cell pellets was reduced, alkylated, and purified by chloroform/methanol extraction prior to digestion with sequencing grade modified porcine trypsin (Cat. No. V5111, Promega). Tryptic peptides were labeled using tandem mass tag isobaric labeling reagents (Cat. No. A34808, ThermoFisher) following the manufacturer's instructions and combined into one 11-plex sample group. The labeled peptide multiplex was separated into 46 fractions on a 100×1.0 mm Acquity BEH C18 column (Waters) using an UltiMate 3000 UHPLC system (Thermo) with a 50 min gradient from 99:1 to 60:40 bufferA:B (Buffer A: 0.1% formic acid, 0.5% acetonitrile; Buffer B: 0.1% formic acid, 99.9% acetonitrile. Both buffers adjusted to pH 10 with ammonium hydroxide for offline separation) ratio under basic pH conditions, and then consolidated into 18 super-fractions. […]
Data processing and analysis. Proteins were identified and MS3 reporter ions quantified using MaxQuant (version 2.0.3.0; Max Planck Institute) against the Homo sapiens UniprotKB database (March 2021) with a parent ion tolerance of 3 ppm, a fragment ion tolerance of 0.5 Da, and a reporter ion tolerance of 0.003 Da. Scaffold Q+S (Proteome Software) was used to verify MS/MS based peptide and protein identifications (protein identifications were accepted if they could be established with less than 1.0% false discovery and contained at least 2 identified peptides; protein probabilities were assigned by the Protein Prophet algorithm (Nesvizhskii et al., 2003) and to perform reporter ion-based statistical analysis. Protein TMT MS3 reporter ion intensity values were assessed for quality using ProteiNorm for a systematic evaluation of normalization methods (Graw et al., 2020). Cyclic loess normalization (Ritchie et al., 2015) was utilized since it had the highest intragroup correlation and the lowest variance amongst the samples. […]
Target sequence in this assay (P50750 whole entry): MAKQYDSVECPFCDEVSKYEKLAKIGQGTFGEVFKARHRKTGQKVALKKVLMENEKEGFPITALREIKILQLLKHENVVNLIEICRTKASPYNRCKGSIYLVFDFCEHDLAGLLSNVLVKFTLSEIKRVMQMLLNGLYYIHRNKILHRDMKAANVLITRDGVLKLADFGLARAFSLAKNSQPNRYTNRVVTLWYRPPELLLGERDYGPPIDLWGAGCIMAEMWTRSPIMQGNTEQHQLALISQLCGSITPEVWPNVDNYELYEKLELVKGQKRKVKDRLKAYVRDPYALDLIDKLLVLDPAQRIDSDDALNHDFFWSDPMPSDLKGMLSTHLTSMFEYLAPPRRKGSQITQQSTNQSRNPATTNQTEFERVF

Another data set addresses T2, CDK10 (Homo sapiens, UniProt Q15131).
T2 construct: endogenous in cells; host or cells: MOLT4
Conditions: b290: Kinativ screening in MOLT4 lysates (Olson et al., 2018); cited from earlier work.

The subject of data set [2] is LNCaP, 22RV1, PC3 and DU145 prostate cancer cell lines. In words: Viability (MTS) assay in prostate cancer cell lines. The data set is classed as cell-based, Human. The following applies: Homo sapiens, 72 h, read-out: EC50, anti-proliferation. How it is done:
All the cell lines were maintained in a humidified incubator at 37° C. and 5% CO2. […] The data were expressed as average % cell viability and fitted in non-linear regression curves using GraphPad Prism 9 (GraphPad Software, La Jolla, CA, USA).

The test system of data set [3] is LNCaP prostate cancer cells and H1299 lung cancer cells. Kind of data set: Cell killing (MTS) with or without KEAP1 siRNA knockdown. The data set is classed as cell-based, Human. Conditions: KEAP1 siRNA vs control siRNA 48 h; compound 0.1 mM (LNCaP) or 0.3 mM (H1299) for 24 h. How it is done: FIGS. 19A to 19B show percentages of cell killing in LNCaP (FIG. 19A) and H1299 (FIG. 19B) cells with or without KEAP1 knockdown. LNCaP and H1299 cells were treated with control siRNA or siRNAs targeting KEAP1 for 48 h and then reseeded and treated with indicated compound (0.1 mM for LNCaP cells and 0.3 mM for H1299 cells) for 24 h. The cell viability was then determined by MTS assay. The data are presented as mean±SD from three replicate cell cultures in a representative experiment. Data are representative of two independent experiments. Statistical significance was calculated with unpaired two-tailed Student's t-tests. **P<0.01; ***P<0.001; NS: not significant.
Viability (MTS) assays in various cancer cells followed the methods described in our previous report (Khan et al., 2019). The data were expressed as average % cell viability and fitted in non-linear regression curves using GraphPad Prism 9 (GraphPad Software, La Jolla, CA, USA).

The target of data set [4] is T1, CDK9. Kind of data set: CDK9 degradation in MOLT4 cells (immunoblot). The data set is classed as cell-based. Further details: endogenous in cells; host or cells: MOLT4, 293T, K562, NCI-H1299, LNCaP. Conditions: 6 h treatment. The procedure: All the cell lines were maintained in a humidified incubator at 37° C. and 5% CO2.
Data analysis was performed using GraphPad Prism software (version 9) unless indicated otherwise. All graphs presented represent the mean±standard deviation of the mean (SD) unless otherwise stated.
Target sequence in this assay (P50750 whole entry): as above

The target of data set [5] is T1, CDK9. The following applies: Table 1; b281 prints these figures as IC50; cited from earlier work.
Target sequence in this assay (P50750 whole entry, species assumed): as the sequence (P50750 whole entry) above
Target sequence in this assay (O60563 whole entry partner, species assumed): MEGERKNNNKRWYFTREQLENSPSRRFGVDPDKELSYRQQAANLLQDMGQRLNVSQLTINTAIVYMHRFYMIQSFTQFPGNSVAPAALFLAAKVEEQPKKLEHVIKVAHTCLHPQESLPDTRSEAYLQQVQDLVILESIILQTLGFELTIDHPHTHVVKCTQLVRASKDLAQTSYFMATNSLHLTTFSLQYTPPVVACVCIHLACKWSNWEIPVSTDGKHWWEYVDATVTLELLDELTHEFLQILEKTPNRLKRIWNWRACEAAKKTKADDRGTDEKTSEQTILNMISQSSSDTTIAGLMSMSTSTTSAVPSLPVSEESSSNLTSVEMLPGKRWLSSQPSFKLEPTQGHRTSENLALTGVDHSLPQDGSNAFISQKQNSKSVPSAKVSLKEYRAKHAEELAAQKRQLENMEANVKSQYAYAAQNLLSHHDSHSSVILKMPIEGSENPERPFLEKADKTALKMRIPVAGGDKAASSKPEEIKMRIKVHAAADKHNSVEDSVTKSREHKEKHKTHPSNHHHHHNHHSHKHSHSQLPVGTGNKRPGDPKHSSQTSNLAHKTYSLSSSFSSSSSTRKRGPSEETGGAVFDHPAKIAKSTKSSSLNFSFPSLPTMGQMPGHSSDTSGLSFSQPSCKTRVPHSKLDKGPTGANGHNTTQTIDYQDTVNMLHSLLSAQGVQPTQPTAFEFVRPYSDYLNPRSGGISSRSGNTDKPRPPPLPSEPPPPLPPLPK
The target in data set [6] is T1, CDK9. Conditions: Olson et al., 2018; cited from earlier work.
Target sequence in this assay (P50750 whole entry, species assumed): as the sequence (P50750 whole entry) above

Entries after “also recorded” stand apart in the source; their conditions may differ. A value given as a limit tells only on which side of the number the result lay.

Here are results for two compounds from patent US20250057963A1, “DISCOVERY OF PIPERLONGUMINE AS A NOVEL E3 LIGASE LIGAND” (University of Florida Research Foundation, Incorporated, priority 2021, published 2025).

T2 sequence (Q15131 whole entry): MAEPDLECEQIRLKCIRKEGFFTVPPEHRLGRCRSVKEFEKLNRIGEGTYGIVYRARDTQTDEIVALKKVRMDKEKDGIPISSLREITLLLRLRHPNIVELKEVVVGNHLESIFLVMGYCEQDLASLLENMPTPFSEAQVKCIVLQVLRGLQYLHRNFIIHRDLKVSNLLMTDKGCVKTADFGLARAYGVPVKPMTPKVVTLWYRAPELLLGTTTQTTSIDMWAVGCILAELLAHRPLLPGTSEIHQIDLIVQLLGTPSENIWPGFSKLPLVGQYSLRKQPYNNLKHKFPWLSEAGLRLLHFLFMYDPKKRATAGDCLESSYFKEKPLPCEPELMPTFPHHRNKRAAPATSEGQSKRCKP

As for `CC(C)(C)c1cnc(CSc2cnc(NC(=O)C3CCNCC3)s2)o1` [SNS-032, N-(5-(((5-(tert-butyl)oxazol-2-yl)methyl)thio)thiazol-2-yl)piperidine-4-carboxamide, reference compound], the “CDK9 protein level (global proteome)” value at CDK9 [1] is “no significant effect on CDK9”. In addition, the “binding of SNS-032 to CDK10” value on CDK10 is given as “very low binding affinity; also recorded: moderate binding”. For the same compound, the EC50 in data set [2] was above 100 nM. Besides, in data set [3], the “effect of KEAP1 knockdown on cytotoxicity of the compound” value is “no significant effect”. In addition, on CDK9 [4], the “CDK9 degradation with short-term treatment” value is listed as “no degradation effect; also recorded: could not”. Further, at CDK9 [5], the “Binding Affinity, CDK9” value is “CDK9: 4 nM”.

Turning to `CC(C)(C)c1cnc(CSc2cnc(NC(=O)C3CCN(CC(=O)NCCOCCOCCOCCNc4cccc5c4C(=O)N(C4CCC(=O)NC4=O)C5=O)CC3)s2)o1` (stereo not shown) [THAL-SNS-032], the “degradation selectivity among SNS-032 targets” value at CDK9 [6] is “could only degrade CDK9 but not other known SNS-032 targets”.
